Results: the CheMixHub ionic liquid set
± gives the uncertainty stated by the source.

Test: xn = mol fraction of the nth substance listed

CCCCCCCC[n+]1ccc2ccccc2c1.O=S(=O)([N-]S(=O)(=O)C(F)(F)F)C(F)(F)F + CCCCCCO
101 kPa
Conditions	viscosity [mPa·s]
318.15 K, x2 = 0.2857	48.99 ± 0.65
338.15 K, x2 = 0.6854	6.58 ± 0.06

[Br-].[Li+] + CCCCCC[n+]1ccn(C)c1.N#C[S-] + CN1CCCC1=O
298.15 K, 101 kPa
Conditions	viscosity [mPa·s]
x2 = 0, x1 = 0.02735	2.37 ± 0.029
x2 = 0, x1 = 0.05202	3.192 ± 0.038
x2 = 0, x1 = 0.07626	4.329 ± 0.05

CCCCCCCC[n+]1ccc2ccccc2c1.O=S(=O)([N-]S(=O)(=O)C(F)(F)F)C(F)(F)F + CCCCO
101 kPa
Conditions	viscosity [mPa·s]
298.15 K, x2 = 0.3134	122.9 ± 2.4
298.15 K, x2 = 0.5032	55.19 ± 0.63
308.15 K, x2 = 0.3134	71.3 ± 1.1
308.15 K, x2 = 0.6915	15.21 ± 0.17
318.15 K, x2 = 0.7937	6.33 ± 0.06
328.15 K, x2 = 0.1708	45.14 ± 0.58
338.15 K, x2 = 0.3134	21.01 ± 0.25
338.15 K, x2 = 0.6915	5.91 ± 0.06
338.15 K, x2 = 0.7937	3.66 ± 0.03

CC(=O)CCC(=O)O + CCCC[N+](CCCC)(CCCC)CCCC.[Cl-]
Conditions	electrical conductivity [S/m]	viscosity [mPa·s]
293.15 K, 101.33 kPa, x2 = 0.3333	–	609 ± 24
298.15 K, 101.33 kPa, x2 = 0.3333	–	405 ± 14
303.15 K, 101.33 kPa, x2 = 0.3333	–	276 ± 9
308.15 K, 101.33 kPa, x2 = 0.3333	–	195 ± 6
313.15 K, 101.33 kPa, x2 = 0.3333	–	141 ± 4
318.15 K, 101.33 kPa, x2 = 0.3333	–	105 ± 3
323.15 K, 101.33 kPa, x2 = 0.3333	–	79 ± 2
328.15 K, 101.33 kPa, x2 = 0.3333	–	61 ± 2
333.15 K, 101 kPa, x1 = 0.75	0.177 ± 0.011	17.47 ± 0.73
333.15 K, 101.33 kPa, x2 = 0.3333	–	48 ± 1
338.15 K, 101.33 kPa, x2 = 0.3333	–	39 ± 1
343.15 K, 101 kPa, x1 = 0.75	0.238 ± 0.014	–
343.15 K, 101.33 kPa, x2 = 0.3333	–	32 ± 1
348.15 K, 101.33 kPa, x2 = 0.3333	–	26 ± 1
353.15 K, 101.33 kPa, x2 = 0.3333	–	22 ± 1

O=C(O)CC(O)C(=O)O (configuration not stated) + CCCC[N+](CCCC)(CCCC)CCCC.[Cl-] + O
100 kPa, x2 = 0.1428, x1 = 0.1428
Conditions	electrical conductivity [S/m]	viscosity [mPa·s]
293.15 K	0.0722 ± 0.0072	283 ± 64
303.15 K	0.113 ± 0.011	191 ± 34
313.15 K	0.173 ± 0.017	133 ± 17
323.15 K	0.257 ± 0.026	94 ± 7.8
333.15 K	0.373 ± 0.037	68.1 ± 2.8

NCCNCCN + CCCC[n+]1ccn(C)c1.F[B-](F)(F)F
101.3 kPa
Conditions	viscosity [mPa·s]
298.15 K, x2 = 0	5.52 ± 0.22
298.15 K, x2 = 0.3995	23.66 ± 0.96
298.15 K, x2 = 0.5905	40.1 ± 1.6
303.15 K, x2 = 0.2998	14.59 ± 0.59
303.15 K, x2 = 0.4992	26.4 ± 1.1
303.15 K, x2 = 0.5905	33.6 ± 1.4
303.15 K, x2 = 0.6974	44.2 ± 1.8
303.15 K, x2 = 0.8948	69.1 ± 2.8
308.15 K, x2 = 0.2998	12.47 ± 0.51
313.15 K, x2 = 0.1986	7.86 ± 0.32
313.15 K, x2 = 0.3995	14.5 ± 0.59
313.15 K, x2 = 0.4992	19.06 ± 0.77
313.15 K, x2 = 0.6974	30.9 ± 1.3
318.15 K, x2 = 0.051	3.95 ± 0.16
323.15 K, x2 = 0.2998	8.65 ± 0.35
323.15 K, x2 = 0.3995	11.33 ± 0.46
323.15 K, x2 = 0.5905	18.26 ± 0.74
328.15 K, x2 = 0.2998	7.68 ± 0.31
328.15 K, x2 = 0.3995	9.9 ± 0.4
328.15 K, x2 = 0.4992	12.63 ± 0.51
328.15 K, x2 = 0.6974	19.4 ± 0.79
333.15 K, x2 = 0.1986	4.89 ± 0.2
333.15 K, x2 = 0.2998	6.68 ± 0.27
333.15 K, x2 = 0.4992	11.19 ± 0.46
333.15 K, x2 = 0.6974	17.57 ± 0.71
333.15 K, x2 = 0.9496	24.5 ± 1

O=S(=O)([O-])C(F)(F)F.[Li+] + CCCC[n+]1ccn(C)c1.N#C[N-]C#N
electrical conductivity [S/m], 101 kPa
Conditions	x2 = 0.8612	x2 = 0.8907	x2 = 0.9197	x2 = 0.9504	x2 = 0.9799
288.15 K	0.236 ± 0.024	–	0.387 ± 0.039	0.489 ± 0.049	0.591 ± 0.06
298.15 K	0.399 ± 0.04	0.521 ± 0.053	0.625 ± 0.063	0.776 ± 0.078	0.91 ± 0.091
333.15 K	1.4 ± 0.14	1.72 ± 0.17	1.91 ± 0.19	2.25 ± 0.23	2.55 ± 0.26

[Br-].[Li+] + CCCC[n+]1ccn(C)c1.N#C[S-] + CN1CCCC1=O
298.15 K, 101 kPa
Conditions	viscosity [mPa·s]
x2 = 0, x1 = 0.02626	2.359 ± 0.029
x2 = 0, x1 = 0.05114	3.124 ± 0.037
x2 = 0, x1 = 0.07535	4.344 ± 0.05

CCCCOC(C)=O + CCCC[n+]1ccn(C)c1.O=S(=O)([N-]S(=O)(=O)C(F)(F)F)C(F)(F)F
Conditions	electrical conductivity, x1 = 0.8928 [S/m]	electrical conductivity, x1 = 0.9456 [S/m]	viscosity, x1 = 0.313 [mPa·s]	viscosity, x1 = 0.8928 [mPa·s]	viscosity, x1 = 0.9456 [mPa·s]
298.15 K, 100 kPa	0.373 ± 0.008	0.163 ± 0.004	–	1.47 ± 0.061	1.092 ± 0.045
318.15 K, 100.7 kPa	–	–	10 ± 1	–	–

N[C@@H](CO)C(=O)O + CCCC[n+]1ccn(C)c1.[Br-] + O
viscosity [mPa·s], 101.3 kPa
Conditions	x1 = 0.0003603, x2 = 0	x1 = 0.0007203, x2 = 0	x1 = 0.001078, x2 = 0	x1 = 0.00144, x2 = 0	x1 = 0.001781, x2 = 0	x1 = 0.002158, x2 = 0	x1 = 0.002516, x2 = 0
293.15 K	1.007 ± 0.061	1.012 ± 0.061	1.018 ± 0.061	1.023 ± 0.061	1.028 ± 0.061	1.033 ± 0.061	1.039 ± 0.061
298.15 K	0.897 ± 0.061	0.902 ± 0.061	0.907 ± 0.061	0.911 ± 0.061	0.916 ± 0.061	0.92 ± 0.061	0.925 ± 0.061
303.15 K	0.804 ± 0.061	0.809 ± 0.061	0.813 ± 0.061	0.818 ± 0.061	0.822 ± 0.061	0.827 ± 0.061	0.831 ± 0.061
308.15 K	0.727 ± 0.06	0.73 ± 0.06	0.735 ± 0.06	0.739 ± 0.06	0.744 ± 0.06	0.748 ± 0.06	0.753 ± 0.06
313.15 K	0.661 ± 0.06	0.664 ± 0.06	0.668 ± 0.06	0.673 ± 0.06	0.677 ± 0.06	0.682 ± 0.06	0.686 ± 0.06

Oc1cccnc1 + CCCC[n+]1ccn(C)c1.[Cl-]
Conditions	viscosity [mPa·s]
293.15 K, 100 kPa, x1 = 0.333	179.1 ± 8.9

II + CCCC[n+]1ccn(C)c1.[I-]
Conditions	electrical conductivity [S/m]
298 K, 101.3 kPa, x2 = 0.333	3.07 ± 0.31

CC[N+](C)(CC)CCOC.F[B-](F)(F)F + CCCC[n+]1ccn(C)c1C.F[B-](F)(F)F
100 kPa
Conditions	electrical conductivity [S/m]
313.15 K, x1 = 0.4	0.289 ± 0.017
313.15 K, x1 = 0.7	0.302 ± 0.018
318.15 K, x1 = 0.2	0.318 ± 0.019
318.15 K, x1 = 0.4	0.361 ± 0.022
318.15 K, x1 = 0.5	0.369 ± 0.022
318.15 K, x1 = 0.8	0.41 ± 0.025
318.15 K, x1 = 1	0.437 ± 0.026
328.15 K, x1 = 0.1	0.492 ± 0.03
328.15 K, x1 = 0.2	0.502 ± 0.03
328.15 K, x1 = 0.5	0.555 ± 0.033
328.15 K, x1 = 0.9	0.682 ± 0.041
333.15 K, x1 = 0.5	0.685 ± 0.041
338.15 K, x1 = 0.4	0.772 ± 0.046
343.15 K, x1 = 0.4	0.913 ± 0.055
348.15 K, x1 = 0.6	1.14 ± 0.069
353.15 K, x1 = 0.2	1.18 ± 0.071
353.15 K, x1 = 0.3	1.21 ± 0.07
353.15 K, x1 = 0.4	1.24 ± 0.074
353.15 K, x1 = 0.5	1.27 ± 0.076
353.15 K, x1 = 0.7	1.38 ± 0.083
353.15 K, x1 = 1	1.62 ± 0.097
358.15 K, x1 = 0.3	1.39 ± 0.083
358.15 K, x1 = 0.4	1.42 ± 0.085
358.15 K, x1 = 0.8	1.61 ± 0.097
363.15 K, x1 = 0.5	1.67 ± 0.1
363.15 K, x1 = 1	2.1 ± 0.13

CCC[N+]1(C)CCCCC1.O=S(=O)([N-]S(=O)(=O)C(F)(F)F)C(F)(F)F + CCC[N+](C)(C)C.O=S(=O)([N-]S(=O)(=O)C(F)(F)F)C(F)(F)F
101.3 kPa, x2 = 0
Conditions	viscosity [mPa·s]
293.15 K	199 ± 40
298.15 K	147 ± 30
303.15 K	112 ± 22
313.15 K	69 ± 14
338.15 K	26.6 ± 5.3
343.15 K	22.9 ± 4.6
